Results from patent US20210007356A1, “IMIDE DERIVATIVE AND FUNGICIDE CONTAINING SAID DERIVATIVE AS ACTIVE INGREDIENT” (HOKKO CHEMICAL INDUSTRY CO., LTD., priority 2018, published 2021).
Like-named read-outs stand apart in the source and are kept apart here.

How the values were obtained:
[1] = system: barley powdery mildew fungus (Erysiphe graminis); assay: Test Example 2: control effect against barley powdery mildew by foliage application; type: in vivo; conditions: wettable powder diluted to 100 ppm, 10 mL per pot foliage spray on barley; inoculated day after; 7 days after inoculation
[2] = system: rice blast fungus (Pyricularia grisea); type: in vivo; conditions: flowable 5,000 ppm, 50 mL irrigation of nursery box, paddy rice; inoculated after 3 weeks; 7 days after inoculation
[3] = system: rice blast fungus (Pyricularia grisea); type: in vivo; conditions: 5 g of granule on nursery box, paddy rice; inoculated after 3 weeks; 7 days after inoculation
[4] = system: rice blast fungus (Pyricularia grisea); type: in vivo; conditions: flowable 1,000 ppm, 1 mL dripped in paddy water, inoculated after 1 week, 7 days after inoculation
[5] = system: rice sheath blight fungus (Thanatephorus cucumeris); assay: Test Example 8: control effect against rice sheath blight by box treatment (granule); conditions: 5 g of granule on nursery box, paddy rice; inoculated after 3 weeks; 7 days after inoculation
From the text: (§1) Control value (%)=[1−(lesion height in sprayed plot/lesion height in unsprayed plot)]×100 (d)
From the top of a nursery box, 5 g of a granule prepared according to Formulation Example-4 was applied to a 2.5-leaf-stage paddy rice (variety: Asahi) seedling raised using a nursery box ( 1/10 the area of standard nursery box in size: 12 cm×15 cm×height 4 cm) within a greenhouse. The formulation-treated paddy rice seedling was immediately transplanted at 5 seedlings/pot into a pot ( 1/10000 are in size) filled with paddy soil (flooded). After growing for 3 weeks within a greenhouse, a culture of rice sheath blight fungus (Thanatephorus cucumeris) grown in advance on a rice straw medium was inoculated into the root of the formulation-treated paddy rice, and disease development was promoted in an artificial weather chamber at 26° C. (relative humidity=100%). Seven days after the inoculation, the rice sheath blight lesion height (height from the root) was examined, and the control value (%) was calculated according to formula (d). […] This test was performed with three replications, each consisting of one plot and one pot, per one formulation plot, and its average evaluation value of control effect was determined.

[6] = system: rice sheath blight fungus (Thanatephorus cucumeris); assay: Test Example 6: control effect against rice sheath blight by box treatment (flowable formulation); conditions: flowable 5,000 ppm, 50 mL irrigation of nursery box, paddy rice; inoculated after 3 weeks; 7 days after inoculation
[7] = system: rice sheath blight fungus (Thanatephorus cucumeris); assay: Test Example 10: control effect against rice sheath blight by water surface application (flowable formulation); conditions: flowable 1,000 ppm, 1 mL dripped in paddy water, inoculated after 1 week, 7 days after inoculation
Method: as §1
By dripping treatment in paddy water, 1 mL of a diluted solution (1,000 ppm) of a flowable prepared according to Formulation Example-3 was applied to a 5-leaf-stage paddy rice (variety: Asahi) seedling (5 seedlings/stub, one stub/pot) grown in a pot ( 1/10000 are in size) filled with paddy soil (flooded) within a greenhouse. After growing for 1 week within a greenhouse, a culture of rice sheath blight fungus (Thanatephorus cucumeris) grown in advance on a rice straw medium was inoculated into the root of the formulation-treated paddy rice, and disease development was promoted in an artificial weather chamber at 26° C. (relative humidity=100%). Seven days after the inoculation, the rice sheath blight lesion height (height from the root) was examined, and the control value (%) was calculated according to formula (d). […] This test was performed with three replications, each consisting of one plot and one pot, per one formulation plot, and its average evaluation value of control effect was determined.

Compound	evaluation value of control effect (from control value, lesion area percentage) [1]	evaluation value of control effect (from control value, number of lesions) [2]	evaluation value of control effect (from control value, number of lesions) [3]	evaluation value of control effect (from control value, number of lesions) [4]	evaluation value of control effect (from control value, lesion height) [5]	evaluation value of control effect (from control value, lesion height) [6]	evaluation value of control effect (from control value, lesion height) [7]
CC1OC(C)(C)c2cccc(N(C(=O)c3cn(C)nc3C(F)F)C(=O)c3cccc4nnsc34)c21 (centres unmarked) [25-74]	4	5	5	5	5	5	5
CC1OC(C)(C)c2cccc(N(C(=O)c3cn(C)nc3C(F)F)C(=O)c3onc(Cl)c3Cl)c21 (centres unmarked) [25-114]	4	5	5	5	5	5	5
Cc1nc(C(F)F)c(C(=O)N(C(=O)c2snc(Cl)c2Cl)c2cccc3c2C(C)OC3(C)C)s1 (centres unmarked) [26-14]	4	5	5	5	5	5	5
Cc1nc(C(F)F)c(C(=O)N(C(=O)c2snnc2C(F)F)c2cccc3c2C(C)CC3(C)C)s1 (centres unmarked) [26-57]	4	5	5	5	5	5	5
Cc1nc(C(F)F)c(C(=O)N(C(=O)c2cccc3nnsc23)c2cccc3c2C(C)OC3(C)C)s1 (centres unmarked) [26-62]	4	5	5	5	5	5	5
Cc1nc(C(F)F)c(C(=O)N(C(=O)c2sc(C)nc2C(F)F)c2cccc3c2C(C)OC3(C)C)s1 (centres unmarked) [26-78]	4	5	5	5	5	5	5
Cc1nc(C(F)F)c(C(=O)N(C(=O)c2cc(Cl)no2)c2cccc3c2C(C)OC3(C)C)s1 (centres unmarked) [26-91]	4	5	5	5	5	5	5
CC1OC(C)(C)c2cccc(N(C(=O)c3cccnc3C(F)F)C(=O)c3snc(Cl)c3Cl)c21 (centres unmarked) [27-4]	4	5	5	5	5	5	5
